Experimental findings from patent US20060293374A1, “Substituted isothiazolones” (priority 2005, published 2006) are described below.

The subject of data set [1] is TXB2 Released by Human Platelets. Put plainly: Ionophore and arachidonic acid induced TXB2 released by human platelets (EIA). It counts as cell-based. Conditions: human platelet-rich plasma; for IC50: challenge with calcium ionophore (10 μM) or arachidonic acid (50 μM); for inhibition at 1 µM: test concentration of 1 μM, calcium ionophore or arachidonic acid challenge, read-out: TXB2 percent inhibition. On the procedure:
Ionophore and Arachidonic Acid Induced TXB2 Released by Human Platelets
The plate was incubated for 15 minutes at 37° C. Following incubation, platelets were challenged with calcium ionophore (final 10 μM) or arachidonic acid (AA) (final 50 μM) and the plate was further incubated at 37° C. for 15 min. The plate was transferred to an ice bed for 5 min in order to stop the reaction. Supernatants were assayed for TXB2 production by EIA (Assay Design Inc) after diluting with assay buffer (Assay Design Inc).

For data set [2], the system named is Neutrophil LTB4. Put plainly: Neutrophil LTB4 assay (calcium ionophore challenge, EIA). It is filed as cell-based. The note with it: test concentration of 5 μM, human neutrophils, calcium ionophore 1 μM; for inhibition at 5 µM: Neutrophil, read-out: LTB4 percent inhibition. As to the method: Neutrophils purified from human blood were resuspended in HBSS buffer containing calcium and magnesium to a cell density of 1×10^6/mL. Purified neutrophils were then incubated with test compounds at a test concentration of 5 μM for 15 min at 37° C. Following incubation, the cells were challenged with calcium ionophore (1 μM final) for 15 minutes at 37° C. Negative control wells were incubated with equal volume of vehicle. The reaction was stopped by transferring the plate to ice for 5 minutes. The plate was centrifuged at 1500 RPM for 5 min at 4° C. LTB4 was calculated in cell free supernatants by EIA (Assay Design Inc).

Data set [3] deals with PMA Induced Acute Ear Edema. As to the kind of experiment: PMA induced acute ear edema (mouse). It counts as in vivo. The note with it: ear punch weight 6 h after PMA; for % Inh (percent inhibition of edema): test compound applied topically at about 1% to about 10%, 10 min before PMA. On the procedure: PMA Induced Acute Ear Edema
PMA was prepared […] in an acetone:water mixture (99:1). 10 μL of 200 ng/10 μL was applied to the left ears of the mice. Control mice received 10 μL of vehicle. Test compounds were dissolved in the vehicle and applied at a test concentration of from about 1% to about 10% (depending on solubility) at 10 min before PMA application. β-methasone (1%) was used as a control. Six hours after the PMA application, mice were sacrificed and 6 mm ear punch biopsies were removed and weighed to assess edema.

Data set [4] has as its system Neutrophil LTB4. As to the kind of experiment: Neutrophil LTB4 assay (calcium ionophore challenge, EIA). It counts as cell-based. The note with it: human neutrophils, calcium ionophore 1 μM.

A word on the IC50: it is the midpoint of a concentration-inhibition curve. In general, inhibition refers to the share of the control response that was lost under treatment. Usually melting point stands for the temperature, or range, at which the solid turns liquid.

In the case of `O=c1ccsn1Cc1cccc2ccccc12` [Cpd 2, 2-naphthalen-1-ylmethyl-isothiazol-3-one], the melting point lay in the range of 121 to 125 °C. Moreover, the IC50 in data set [1] was found to be 3000 nM. Also, in the data set with Neutrophil LTB4 [2], the inhibition at 5 µM stood at 81%.

`O=c1cc(Cl)sn1Cc1sc2ccccc2c1Cl` [Cpd 6, 5-chloro-2-(3-chloro-benzo[b]thiophen-2-ylmethyl)-isothiazol-3-one] had a melting point of 118 to 120 °C. The IC50 in data set [1] was found to be 710 nM. Further, the inhibition at 5 µM in the data set with Neutrophil LTB4 [2] stood at 70%.

In turn, `O=c1cc(Cl)sn1Cc1cc2ccccc2s1` [Cpd 7, 2-benzo[b]thiophen-2-ylmethyl-5-chloro-isothiazol-3-one] had a melting point of 101 to 103 °C. In addition, in data set [1], the IC50 is 460 nM. Also, in the data set with Neutrophil LTB4 [2], the inhibition at 5 µM came to 95%.

Turning to `O=c1ccsn1Cc1cc2ccccc2s1` [Cpd 9, 2-benzo[b]thiophen-2-ylmethyl-isothiazol-3-one], the melting point lay within 144 to 146 °C. The “% Inh (percent inhibition of edema)” value in data set [3] is on record as 72%. For the same compound, the IC50 in data set [1] turned out to be 1800 nM. For the same compound, the inhibition at 5 µM with Neutrophil LTB4 [2] is 84%.

`O=c1cc(Cl)sn1Cc1ccc2c(c1)CCO2` [Cpd 16, 5-chloro-2-(2,3-dihydro-benzofuran-5-ylmethyl)-isothiazol-3-one] registered a melting point of 100 to 102 °C. Also, in data set [1], the IC50 was 250 nM. Further, in the data set on Neutrophil LTB4 [2], the inhibition at 5 µM is 97%.

`O=c1cc(Cl)sn1Cc1ccc(-c2csnn2)cc1` [Cpd 21, 5-chloro-2-(4-[1,2,3]thiadiazol-4-yl-benzyl)isothiazol-3-one] returned a melting point of 152 to 154 °C. Besides, the half-inhibitory concentration (IC50) in data set [1] came out at 1000 nM. In addition, the inhibition at 5 µM in the data set with Neutrophil LTB4 [2] turned out to be 87%.

`Cc1nc(-c2ccc(Cn3sccc3=O)cc2)cs1` [Cpd 26, 2-[4-(2-methyl-thiazol-4-yl)-benzyl]-isothiazol-3-one]: the melting point was in the range of 150.5 to 152 °C. Besides, in the data set on Neutrophil LTB4 [4], the half-inhibitory concentration (IC50) is 1700 nM. Besides, in data set [1], the half-inhibitory concentration (IC50) stood at 400 nM.

Take `Cc1nc(-c2cccc(Cn3sccc3=O)c2)cs1` [Cpd 48, 2-[3-(2-methyl-thiazol-4-yl)benzyl]-isothiazol-3-one]: the half-inhibitory concentration (IC50) (in the data set with Neutrophil LTB4 [4]; in data set [1]) was 1500 nM throughout.

`O=c1ccsn1Cc1cccc(-c2ccco2)c1` [Cpd 49, 2-(3-furan-2-yl-benzyl)-isothiazol-3-one]: the melting point was 78 to 80 °C. For the same compound, the half-inhibitory concentration (IC50) in data set [1] came to 1200 nM. In addition, the inhibition at 5 µM with Neutrophil LTB4 [2] was found to be 100%.

On to `O=c1ccsn1Cc1cccc(-c2ccncc2)c1` [Cpd 50, 2-(3-pyridin-4-yl-benzyl)-isothiazol-3-one], for which the IC50 in data set [1] turned out to be 500 nM. Besides, the inhibition at 5 µM with Neutrophil LTB4 [2] stood at 100%.

Regarding `O=C(c1ccccc1)c1ccc(Cn2sccc2=O)cc1` [Cpd 51, 2-(4-benzoylbenzyl)-isothiazol-3-one], the “% Inh (percent inhibition of edema)” value in data set [3] was determined as 84%. In data set [1], the IC50 is 1200 nM. The inhibition at 5 µM with Neutrophil LTB4 [2] is 90%.

For `O=c1cc(Cl)sn1Cc1nc(-c2ccccc2)sc1Cl` [Cpd 52, 5-chloro-2-(5-chloro-2-phenyl-thiazol-4-ylmethyl)-isothiazol-3-one], in data set [1], the 50% inhibitory concentration (IC50) turned out to be 400 nM. The inhibition at 5 µM with Neutrophil LTB4 [2] worked out at 81%.

On to `O=c1cc(Cl)sn1Cc1csc(-c2ccccc2)n1` [Cpd 53, 5-chloro-2-(2-phenyl-thiazol-4-ylmethyl)-isothiazol-3-one], for which the IC50 in data set [1] stood at 400 nM. Further, the inhibition at 5 µM in the data set on Neutrophil LTB4 [2] came to 92%.

For `O=c1ccsn1Cc1csc(-c2ccccc2)n1` [Cpd 54, 2-(2-phenyl-thiazol-4-ylmethyl)-isothiazol-3-one], the half-maximal inhibitory concentration (IC50) in data set [1] was found to be 1500 nM. Also, in the data set with Neutrophil LTB4 [2], the inhibition at 5 µM was 96%.

For the compound `O=c1cc(Cl)sn1Cc1ccc(-n2cc(Cl)cn2)cc1` [Cpd 55, 5-chloro-2-[4-(4-chloro-pyrazol-1-yl)-benzyl]-isothiazol-3-one], the IC50 in data set [1] amounted to 3200 nM. In addition, the inhibition at 5 µM with Neutrophil LTB4 [2] was 72%.

With `O=c1cc(Cl)sn1Cc1ccc(-n2cccn2)cc1` [Cpd 56, 5-chloro-2-(4-pyrazol-1-yl)-benzyl-isothiazol-3-one], the half-maximal inhibitory concentration (IC50) in data set [1] came out at 800 nM. Moreover, the LTB4 percent inhibition in the data set on Neutrophil LTB4 [2] is 48%.

In the case of `O=c1ccsn1Cc1ccc(-n2cc(Cl)cn2)cc1` [Cpd 57, 2-[4-(4-chloro-pyrazol-1-yl)-benzyl]-isothiazol-3-one], the “% Inh (percent inhibition of edema)” value in data set [3] came out at 100%. Besides, in data set [1], the concentration for half-maximal inhibition (IC50) is 3000 nM. Moreover, the inhibition at 5 µM with Neutrophil LTB4 [2] worked out at 100%.

As for `O=c1ccsn1Cc1ccc(-n2cccn2)cc1` [Cpd 58, 2-(4-pyrazol-1-yl)-benzyl-isothiazol-3-one], the 50% inhibitory concentration (IC50) in data set [1] worked out at 1000 nM. Also, the LTB4 percent inhibition in the data set on Neutrophil LTB4 [2] is 100%.

For the compound `O=Cc1cccc(Cn2sc(Cl)cc2=O)c1` [Cpd 59, 5-chloro-2-(3-formylbenzyl)-isothiazol-3-one], in data set [1], the half-inhibitory concentration (IC50) came to 600 nM. Moreover, in the data set on Neutrophil LTB4 [2], the inhibition at 5 µM stood at 96%.

As for `O=CC#Cc1cccc(Cn2sc(Cl)cc2=O)c1` [Cpd 60, [3-(5-chloro-3-oxo-3H-isothiazol-2-ylmethyl)-phenyl]-propynal], the inhibition at 1 µM in data set [1] is 72%. For the same compound, in the data set on Neutrophil LTB4 [2], the inhibition at 5 µM came to 100%.

Regarding `O=c1cc(Cl)sn1Cc1nc(-c2cccs2)sc1Cl` [Cpd 61, 5-chloro-2-(5-chloro-2-thiophen-2-yl-thiazol-4-ylmethyl)-isothiazol-3-one], the inhibition at 1 µM in data set [1] was found to be 49%. In the data set with Neutrophil LTB4 [2], the inhibition at 5 µM came to 100%.

As to `O=c1[nH]sc(Cl)c1Cc1csc(-c2cccs2)n1` [Cpd 62, 5-chloro-(2-thiophen-2-yl-thiazol-4-ylmethyl)-isothiazol-3-one], in data set [1], the concentration for half-maximal inhibition (IC50) turned out to be 800 nM. In addition, in the data set with Neutrophil LTB4 [2], the inhibition at 5 µM worked out at 96%.

In the case of `O=c1ccsn1Cc1nc(-c2cccs2)sc1Cl` [Cpd 63, 2-(5-chloro-2-thiophen-2-yl-thiazol-4-ylmethyl)-isothiazol-3-one], the inhibition at 1 µM in data set [1] stood at 42%. Moreover, in the data set with Neutrophil LTB4 [2], the inhibition at 5 µM turned out to be 86%.

On to `O=c1ccsn1Cc1csc(-c2cccs2)n1` [Cpd 64, 2-(2-thiophen-2-yl-thiazol-4-ylmethyl)-isothiazol-3-one], for which the inhibition at 1 µM in data set [1] turned out to be 39%. Moreover, in the data set on Neutrophil LTB4 [2], the inhibition at 5 µM was found to be 89%.

For the compound `CC(=O)c1ccc(Cn2sc(Cl)c(Cl)c2=O)cc1` [Cpd 65, 4,5-dichloro-2-(4-acetylbenzyl)-isothiazol-3-one], in data set [1], the IC50 worked out at 400 nM. In addition, in the data set with Neutrophil LTB4 [2], the inhibition at 5 µM is 45%.

Regarding `C[C@H]1C[C@H]2[C@@H]3CCC4=CC(=O)C=C[C@]4(C)[C@@]3(F)[C@@H](O)C[C@]2(C)[C@@]1(O)C(=O)CO` [β-methasone, reference compound], the “β-methasone control, percent inhibition of edema” value in data set [3] (β-methasone (1%) used as control) is on record as 100%.
